Here are results for 6 compounds from ChEMBL document CHEMBL1687773 (Antimicrob Agents Chemother, 2010).

The subject of test [1] is Human immunodeficiency virus 1. The experiment in a line: Antiviral activity against HIV1 NL4-3 infected in human MT2 cells assessed as inhibition of virus-induced cell death at 0.5 multiplicities of infection after 6 days. The test is classed as functional, organism-based. To be noted: Human immunodeficiency virus 1, NL4-3, MT2, 144 h.
Test [2] concerns Human immunodeficiency virus 1. Put plainly: Antiviral activity against HIV1 NL4-3 infected in human SupT1 cells derived from 11 viral passages assessed as inhibition of viral replication after 21 days relative to drug sensitive HIV1 NL4-3. The format is functional, SUP-T1.
Test [3] relates to Human immunodeficiency virus 1. Put plainly: Antiviral activity against HIV1 NL4-3 harboring reverse transcriptase V108I, E138K mutant infected in human SupT1 cells derived from 9 viral passages with lersivirine assessed as inhibition of viral replication after 21 days relative to drug sensitive HIV1 NL4-3. The test is classed as functional, SUP-T1.
For test [4], the system named is Human immunodeficiency virus 1. The experiment in a line: Antiviral activity against HIV1 NL4-3 harboring reverse transcriptase L100I, K103Q, H221H/Y mutant infected in human SupT1 cells derived from 11 viral passages with efavirenz assessed as inhibition of viral replication after 21 days relative to drug sensitive HIV1 NL4-3. The format is functional, SUP-T1.
The test system of test [5] is Human immunodeficiency virus 1. Put plainly: Antiviral activity against HIV1 NL4-3 harboring reverse transcriptase V108I, E138K, F227F/L mutant infected in human SupT1 cells derived from 11 viral passages with lersivirine assessed as inhibition of viral replication after 21 days relative to drug sensitive HIV1 NL4-3. The test is classed as functional, SUP-T1.
For test [6], the system named is Human immunodeficiency virus 1. The experiment in a line: Antiviral activity against HIV1 NL4-3 harboring reverse transcriptase V108I, H221Y, F227F/L, M230M/I mutant infected in human SupT1 cells derived from 11 viral passages with lersivirine assessed as inhibition of viral replication after 21 days relative to drug sensitive HIV1 NL4-3. The test is classed as functional, SUP-T1.

As usually defined, the EC50 is the concentration giving half of the maximal effect. Consider `Cc1cc(C#N)cc(C)c1Oc1nc(Nc2ccc(C#N)cc2)nc(N)c1Br` [ETRAVIRINE], for which the EC50 in test [1] came out at 0.5 nM.

As to `CC(C)(C)NC(=O)[C@@H]1CN(Cc2cccnc2)CCN1C[C@@H](O)C[C@@H](Cc1ccccc1)C(=O)N[C@H]1c2ccccc2C[C@H]1O`, the EC50 in test [1] is 0.5 nM.

For the compound `Cc1ccnc2c1NC(=O)c1cccnc1N2C1CC1` [NEVIRAPINE], the “fold change (FC)” value in test [2] stood at 0.2; in test [3], 0.9; in test [4], 1; in test [5], 12.2; in test [6], 6.4.

Turning to `CC(C)Nc1cccnc1N1CCN(C(=O)c2cc3cc(NS(C)(=O)=O)ccc3[nH]2)CC1` [DELAVIRDINE], the “fold change (FC)” value in test [2] is reported as 0.3; in test [3] it was 1.5; in test [4], 16.4; in test [5], 1.8; in test [6], 0.2.

As to `Cc1cn([C@H]2C[C@H](N=[N+]=[N-])[C@@H](CO)O2)c(=O)[nH]c1=O` [ZIDOVUDINE], the “fold change (FC)” value in test [2] is listed as 0.2; in test [3], 0.4; in test [4], 0.1; in test [5], 0.6; in test [6] it was 0.1.

On to `C=C(C)[C@@H]1CC[C@]2(C(=O)O)CC[C@]3(C)[C@H](CC[C@@H]4[C@@]5(C)CC[C@H](OC(=O)CC(C)(C)C(=O)O)C(C)(C)[C@@H]5CC[C@]43C)[C@@H]12` [BEVIRIMAT], for which the EC50 in test [1] turned out to be 0.5 nM.
